Data on 24 molecules can be found in US20100311714A1, “1H-IMIDAZO[4,5-c]QUINOLINONE COMPOUNDS” (priority 2009, published 2010).

One data set has as its target T1, mTOR (Homo sapiens, UniProt P42345).
T1 construct: purchased Invitrogen Corporation (Carlsbad/Calif., USA) PV4753
The data set is described as follows: Biochemical assay for m-TOR by TR-FRET. The gist of the method:
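mTOR (0.5 nM) phosphorylates GFP-4EBP1 (400 nM) with 8 μM ATP at rt in 50 mM HEPES pH 7.5, 10 mM MnCl2, 50 mM NaCl, 1 mM EGTA, 1 mM DTT; compounds 0.003–10 μM final. EDTA stop with Tb-anti-p4EBP1[pT46] antibody (0.5 nM); TR-FRET read after 15 min against no-enzyme and vehicle controls.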
Background: In TR-FRET formats the signal depends on donor and acceptor labels being close together.

In data set [1] the test system is PKB Ser473 phosphorylation in Rat1-myr-HA-p110 delta cells. The data set is described as follows: Reverse protein array, PKB Ser473 phosphorylation in Rat1-myr-HA-p110 delta cells. Format: cell-based. The conditions noted are these: Rattus norvegicus, 0.5 h, 30 minutes compound incubation, read-out: p-PKB/IC50_delta.
Data set [2] in a line: Parallel Artificial Membrane Permeability Assay (PAMPA) at pH 6.8. Type of data set: physicochemical. The method in brief: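 PAMPA permeability measured at pH 6.8 following the Wohnsland and Faller method; value reported as log Pe.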
For orientation: In PAMPA a lipid-coated filter parts donor from acceptor wells.

Read-outs that look alike come from different tables or passages of the source. Some results are limits rather than exact numbers.

T1 sequence (P42345 1360-2549 limits assumed): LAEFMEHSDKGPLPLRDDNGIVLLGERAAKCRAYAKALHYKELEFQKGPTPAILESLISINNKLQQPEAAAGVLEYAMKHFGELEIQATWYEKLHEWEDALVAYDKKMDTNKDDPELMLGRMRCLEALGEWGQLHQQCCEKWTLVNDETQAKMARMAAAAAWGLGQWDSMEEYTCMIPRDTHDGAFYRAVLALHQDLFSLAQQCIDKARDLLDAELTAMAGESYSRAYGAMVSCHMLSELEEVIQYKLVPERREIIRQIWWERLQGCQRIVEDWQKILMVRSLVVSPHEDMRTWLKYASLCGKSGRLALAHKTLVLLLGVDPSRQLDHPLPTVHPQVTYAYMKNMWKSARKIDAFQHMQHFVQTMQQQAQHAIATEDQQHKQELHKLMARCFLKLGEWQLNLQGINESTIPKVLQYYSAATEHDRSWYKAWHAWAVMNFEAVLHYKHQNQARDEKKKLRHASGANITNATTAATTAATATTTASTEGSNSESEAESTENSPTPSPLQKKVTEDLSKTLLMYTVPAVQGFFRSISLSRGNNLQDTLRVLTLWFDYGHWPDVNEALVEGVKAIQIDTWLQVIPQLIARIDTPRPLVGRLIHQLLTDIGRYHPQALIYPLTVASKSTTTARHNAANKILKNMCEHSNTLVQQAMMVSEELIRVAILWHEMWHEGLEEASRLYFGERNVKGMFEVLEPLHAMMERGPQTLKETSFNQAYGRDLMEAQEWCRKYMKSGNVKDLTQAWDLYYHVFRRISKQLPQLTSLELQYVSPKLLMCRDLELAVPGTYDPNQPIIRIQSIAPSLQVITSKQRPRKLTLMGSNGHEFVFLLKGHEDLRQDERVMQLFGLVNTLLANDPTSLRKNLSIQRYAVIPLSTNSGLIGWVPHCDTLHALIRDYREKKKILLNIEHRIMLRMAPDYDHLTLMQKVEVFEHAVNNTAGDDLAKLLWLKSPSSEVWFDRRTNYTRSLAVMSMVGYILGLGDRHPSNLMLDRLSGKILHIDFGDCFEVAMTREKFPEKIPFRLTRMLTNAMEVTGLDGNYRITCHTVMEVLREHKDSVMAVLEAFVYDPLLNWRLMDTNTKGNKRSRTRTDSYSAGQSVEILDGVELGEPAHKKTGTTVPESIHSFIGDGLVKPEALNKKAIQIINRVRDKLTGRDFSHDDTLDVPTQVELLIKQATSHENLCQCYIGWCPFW

Regarding `COc1ncccc1-n1c(=O)n(C)c2cnc3ccc(-c4cnc5[nH]ccc5c4)cc3c21` [Example 1.2, 1-(2-Methoxy-pyridin-3-yl)-3-methyl-8-(1H-pyrrolo[2,3-b]pyridin-5-yl)-1,3-dihydro-imidazo[4,5-c]quinolin-2-one], the IC50 came out at 4 nM on mTOR (read-out: mTOR/IC50) and 8.01 nM in data set [1]. Also, in data set [2], the “HT-perm/logPe pH6.8” value is −4.5.

Consider `CCOc1ncc(-c2ccc3ncc4c(c3c2)n(-c2cccnc2C)c(=O)n4C)cn1` [Example 2.5, 8-(2-Ethoxy-pyrimidin-5-yl)-3-methyl-1-(2-methyl-pyridin-3-yl)-1,3-dihydro-imidazo[4,5-c]quinolin-2-one], for which the IC50 at mTOR (read-out: mTOR/IC50) stood at 166 nM; in data set [1], 204 nM. Also, the “HT-perm/logPe pH6.8” value in data set [2] is −4.0.

As for `COc1ccc(-c2ccc3ncc4c(c3c2)n(-c2cccnc2C)c(=O)n4C)cc1OC` [Example 2.9, 8-(3,4-Dimethoxy-phenyl)-3-methyl-1-(2-methyl-pyridin-3-yl)-1,3-dihydro-imidazo[4,5-c]quinolin-2-one], the IC50 amounted to 23 nM on mTOR (read-out: mTOR/IC50) and 34.1 nM in data set [1]. For the same molecule, the “HT-perm/logPe pH6.8” value in data set [2] is on record as −3.3.

Take `Cc1ncccc1-n1c(=O)n(C)c2cnc3ccc(-c4cnc(N)c(C(F)(F)F)c4)cc3c21` [Example 2.11, 8-(6-Amino-5-trifluoromethyl-pyridin-3-yl)-3-methyl-1-(2-methyl-pyridin-3-yl)-1,3-dihydro-imidazo[4,5-c]quinolin-2-one]: the values for the IC50 (on mTOR (read-out: mTOR/IC50); in data set [1]) were 16 nM and 20.9 nM, respectively. Moreover, the “HT-perm/logPe pH6.8” value in data set [2] is −4.0.

As to `COc1ccc(-c2ccc3ncc4c(c3c2)n(-c2cccnc2C)c(=O)n4C)cn1` [Example 2.12, 8-(6-Methoxy-pyridin-3-yl)-3-methyl-1-(2-methyl-pyridin-3-yl)-1,3-dihydro-imidazo[4,5-c]quinolin-2-one], the IC50 at mTOR (read-out: mTOR/IC50) was 74 nM; in data set [1], 79.8 nM. The “HT-perm/logPe pH6.8” value in data set [2] is listed as −3.3.

`CNc1ccc(-c2ccc3ncc4c(c3c2)n(-c2cccnc2C)c(=O)n4C)cn1` [Example 2.13, 3-Methyl-8-(6-methylamino-pyridin-3-yl)-1-(2-methyl-pyridin-3-yl)-1,3-dihydro-imidazo[4,5-c]quinolin-2-one]: the IC50 on mTOR (read-out: mTOR/IC50) was found to be 19 nM; in data set [1], 36.8 nM. In data set [2], the “HT-perm/logPe pH6.8” value is listed as −4.7.

In the case of `Cc1ncccc1-n1c(=O)n(C)c2cnc3ccc(-c4cnc(N(C)C)nc4)cc3c21` [Example 2.15, 8-(2-Dimethylamino-pyrimidin-5-yl)-3-methyl-1-(2-methyl-pyridin-3-yl)-1,3-dihydro-imidazo[4,5-c]quinolin-2-one], the IC50 at mTOR (read-out: mTOR/IC50) was found to be 53 nM; in data set [1], 102 nM. Further, the “HT-perm/logPe pH6.8” value in data set [2] is −3.7.

On to `Cc1ncccc1-n1c(=O)n(C)c2cnc3ccc(-c4cncc(NC(C)C)c4)cc3c21` [Example 2.24, 8-(5-Isopropylamino-pyridin-3-yl)-3-methyl-1-(2-methyl-pyridin-3-yl)-1,3-dihydro-imidazo[4,5-c]quinolin-2-one], for which the IC50 on mTOR (read-out: EPK_mTOR/IC50) was 29 nM; in data set [1] it was 28.9 nM. Further, the “HT-Perm logPe pH6.8” value in data set [2] is given as −4.5.

Consider `Cc1ncccc1-n1c(=O)n(C)c2cnc3ccc(-c4cncc(N)c4)cc3c21` [Example 2.25, 8-(5-Amino-pyridin-3-yl)-3-methyl-1-(2-methyl-pyridin-3-yl)-1,3-dihydro-imidazo[4,5-c]quinolin-2-one], for which the IC50 at mTOR (read-out: EPK_mTOR/IC50) is 12 nM; in data set [1], 110 nM. Further, the “HT-Perm logPe pH6.8” value in data set [2] is −7.7.

Regarding `CNc1cncc(-c2ccc3ncc4c(c3c2)n(-c2cccnc2C)c(=O)n4C)c1` [Example 2.26, 3-Methyl-8-(5-methylamino-pyridin-3-yl)-1-(2-methyl-pyridin-3-yl)-1,3-dihydro-imidazo[4,5-c]quinolin-2-one], the IC50 on mTOR (read-out: EPK_mTOR/IC50) turned out to be 22 nM; in data set [1] it was 67.3 nM. Further, the “HT-Perm logPe pH6.8” value in data set [2] was −5.3.

For the molecule `COc1cc(-c2ccc3ncc4c(c3c2)n(-c2cccnc2C)c(=O)n4C)cnc1C(OC)OC` [Example 2.27, 8-(6-Dimethoxymethyl-5-methoxy-pyridin-3-yl)-3-methyl-1-(2-methyl-pyridin-3-yl)-1,3-dihydro-imidazo[4,5-c]quinolin-2-one], the IC50 was determined as 169 nM on mTOR (read-out: EPK_mTOR/IC50) and 825 nM in data set [1]. Besides, the “HT-Perm logPe pH6.8” value in data set [2] is reported as −5.3.

Regarding `CCOc1cc(-c2ccc3ncc4c(c3c2)n(-c2cccnc2C)c(=O)n4C)cnc1COC` [Example 2.28, 8-(5-Ethoxy-6-methoxymethyl-pyridin-3-yl)-3-methyl-1-(2-methyl-pyridin-3-yl)-1,3-dihydro-imidazo[4,5-c]quinolin-2-one], the IC50 on mTOR (read-out: EPK_mTOR/IC50) is 58 nM; in data set [1] it was 218 nM. The “HT-Perm logPe pH6.8” value in data set [2] was −4.3.

In the case of `Cc1ncccc1-n1c(=O)n(C)c2cnc3ccc(-c4cncc(N5CCC5)c4)cc3c21` [Example 2.29, 8-(5-Azetidin-1-yl-pyridin-3-yl)-3-methyl-1-(2-methyl-pyridin-3-yl)-1,3-dihydro-imidazo[4,5-c]quinolin-2-one], the IC50 at mTOR (read-out: EPK_mTOR/IC50) came out at 43 nM; in data set [1], 122 nM. The “HT-Perm logPe pH6.8” value in data set [2] is −4.3.

As to `CCNc1cc(-c2ccc3ncc4c(c3c2)n(-c2cccnc2C)c(=O)n4C)cnc1CO` [Example 2.31, 8-(5-Ethylamino-6-hydroxymethyl-pyridin-3-yl)-3-methyl-1-(2-methyl-pyridin-3-yl)-1,3-dihydro-imidazo[4,5-c]quinolin-2-one], the results for the IC50 (at mTOR (read-out: EPK_mTOR/IC50); in data set [1]) were under 3 nM and 31.4 nM, respectively. For the same molecule, in data set [2], the “HT-Perm logPe pH6.8” value is on record as −5.8.

Consider `CNc1cc(-c2ccc3ncc4c(c3c2)n(-c2cccnc2C)c(=O)n4C)cnc1C` [Example 2.32, 3-Methyl-8-(6-methyl-5-methylamino-pyridin-3-yl)-1-(2-methyl-pyridin-3-yl)-1,3-dihydro-imidazo[4,5-c]quinolin-2-one], for which the IC50 on mTOR (read-out: EPK_mTOR/IC50) was 7 nM; in data set [1] it was 33.7 nM. For the same molecule, the “HT-Perm logPe pH6.8” value in data set [2] is reported as −4.8.

`CNc1ncc(-c2ccc3ncc4c(c3c2)n(-c2ncccc2C)c(=O)n4C)cn1` [Example 3.4, 3-Methyl-8-(2-methylamino-pyrimidin-5-yl)-1-(3-methyl-pyridin-2-yl)-1,3-dihydro-imidazo[4,5-c]quinolin-2-one]: the IC50 at mTOR (read-out: mTOR/IC50) came to 607 nM; in data set [1], 742 nM. The “HT-perm/logPe pH6.8” value in data set [2] was −4.7.

As to `Cc1cccnc1-n1c(=O)n(C)c2cnc3ccc(-c4cnc(N)c(C(F)(F)F)c4)cc3c21` [Example 3.12, 8-(6-Amino-5-trifluoromethyl-pyridin-3-yl)-3-methyl-1-(3-methyl-pyridin-2-yl)-1,3-dihydro-imidazo[4,5-c]quinolin-2-one], the IC50 on mTOR (read-out: mTOR/IC50) amounted to 389 nM; in data set [1], 75.5 nM. Also, the “HT-perm/logPe pH6.8” value in data set [2] is reported as −4.0.

`COc1ccc(-c2ccc3ncc4c(c3c2)n(-c2cnccc2C)c(=O)n4C)cn1` [Example 4.3, 8-(6-Methoxy-pyridin-3-yl)-3-methyl-1-(4-methyl-pyridin-3-yl)-1,3-dihydro-imidazo[4,5-c]quinolin-2-one]: the results for the IC50 (on mTOR (read-out: mTOR/IC50); in data set [1]) were 442 nM and 681 nM, respectively. The “HT-perm/logPe pH6.8” value in data set [2] is reported as −3.7.

In the case of `CN(C)c1ccc(-c2ccc3ncc4c(c3c2)n(-c2cccnc2)c(=O)n4C)cn1` [Example 5.3, 8-(6-Dimethylamino-pyridin-3-yl)-3-methyl-1-pyridin-3-yl-1,3-dihydro-imidazo[4,5-c]quinolin-2-one], the IC50 was 253 nM at mTOR (read-out: mTOR/IC50) and 251 nM in data set [1]. Further, the “HT-perm/logPe pH6.8” value in data set [2] was −3.9.

Consider `CCOc1ccc(-c2ccc3ncc4c(c3c2)n(-c2cccnc2F)c(=O)n4C)cn1` [Example 6.1, 8-(6-Ethoxy-pyridin-3-yl)-1-(2-fluoro-pyridin-3-yl)-3-methyl-1,3-dihydro-imidazo[4,5-c]quinolin-2-one], for which the IC50 on mTOR (read-out: mTOR/IC50) was found to be 107 nM; in data set [1], 144 nM. Further, the “HT-perm/logPe pH6.8” value in data set [2] is on record as −3.9.

With `Cn1c(=O)n(-c2cccnc2F)c2c3cc(-c4cnc(N)c(C(F)(F)F)c4)ccc3ncc21` [Example 6.2, 8-(6-Amino-5-trifluoromethyl-pyridin-3-yl)-1-(2-fluoro-pyridin-3-yl)-3-methyl-1,3-dihydro-imidazo[4,5-c]quinolin-2-one], the IC50 on mTOR (read-out: mTOR/IC50) stood at 15 nM; in data set [1], 11.5 nM. Further, in data set [2], the “HT-perm/logPe pH6.8” value is on record as −3.8.

As to `Cc1nc(F)ccc1-n1c(=O)n(C)c2cnc3ccc(-c4cnc(N)c(C(F)(F)F)c4)cc3c21` [Example 7.1, 8-(6-Amino-5-trifluoromethyl-pyridin-3-yl)-1-(6-fluoro-2-methyl-pyridin-3-yl)-3-methyl-1,3-dihydro-imidazo[4,5-c]quinolin-2-one], the IC50 was found to be 8 nM at mTOR (read-out: mTOR/IC50) and 24.7 nM in data set [1]. Further, in data set [2], the “HT-perm/logPe pH6.8” value is given as −3.8.

For `Cc1nc(F)ccc1-n1c(=O)n(C)c2cnc3ccc(-c4cnc5c(ccn5C)c4)cc3c21` [Example 7.2, 1-(6-Fluoro-2-methyl-pyridin-3-yl)-3-methyl-8-(1-methyl-1H-pyrrolo[2,3-b]pyridin-5-yl)-1,3-dihydro-imidazo[4,5-c]quinolin-2-one], the IC50 on mTOR (read-out: mTOR/IC50) is 17 nM; in data set [1], 69.7 nM. The “HT-perm/logPe pH6.8” value in data set [2] is on record as −3.7.

As to `CCOc1ccc(-c2ccc3ncc4c(c3c2)n(-c2ccc(F)nc2C)c(=O)n4C)cn1` [Example 7.3, 8-(6-Ethoxy-pyridin-3-yl)-1-(6-fluoro-2-methyl-pyridin-3-yl)-3-methyl-1,3-dihydro-imidazo[4,5-c]quinolin-2-one], the IC50 on mTOR (read-out: mTOR/IC50) came to 59 nM; in data set [1] it was 85.8 nM. In addition, the “HT-perm/logPe pH6.8” value in data set [2] was −3.7.
